Patent US10995068B2, “Synthetic sphingolipid-like molecules, drugs, methods of their synthesis and methods of treatment” (The Regents of the University of California, priority 2015, dated 2021)

Key:
PIKfyve = target: T1, PIKfyve (Homo sapiens, UniProt Q9Y2I7); experiment: PIKfyve in vitro kinase assay; type: biochemical; conditions: FLAG-PIKfyve
T1 construct: made in house; host or cells: HEK293T cells
Text: In certain embodiments of the invention, sphingolipid-like molecules mis-localize PIKfyve preventing its association with TRMPL1 and inducing vacuolation, instead of inhibiting PIKfyve kinase activity. While PIKfyve localized to the limiting membrane of YM201636-induced vacuoles as expected, PIKfyve was present in clumps between vacuoles in FTY720-treated cells (FIGS. 57C and 56F).
PIKfyve in vitro kinase assay. FLAG-PIKfyve was expressed in HEK293T cells, purified with FLAG-beads, and eluted with FLAG peptides. PI3P and phosphatidylserine (C16) liposomes were generated by sonication in 2× lipid mixture buffer [40 mM Tris-HCl (pH 7.4), 200 mM NaCl, 1 mM EGTA] with or without FTY720. FLAG-PIKfyve and lipid mixtures were incubated with Mg^2+-ATP solution [6.5 mM HEPES (pH 7.3), 2.5 mM MnCl2, 10 mM MgCl2, 1 mM β-glycerophosphate, 0.1 mM ATP and [^32P]-γ-ATP] for 15 min at RT. The reaction was stopped by adding 4 M HCl, and phosphoinositides were extracted with methanol/chloroform (1:1). Phosphoinositides were spotted on silica thin-layer chromatography plates and separated with 2 M acetic acid/1-propanol (35:65). Membranes were dried, exposed to a Phospho Imager, and the counts from PI(3,5)P2 spots quantified with ImageQuant.

colon cancer cells SW620 = experiment: Colony formation assay, SW620; type: cell-based, human; conditions: anchorage-independent growth, colonies counted after 12 days
Method: The difference in sensitivity stems from the inability of neoplastic cells to adapt to decreases of metabolism.
Cell analysis: Viability and 4F2hc expression are determined by vital dye exclusion and flow cytometry. Oxygen consumption is measured with an XF24 Extracellular Flux Analyzer (Seahorse Bioscience); values are normalized to total protein. Confocal microscopy is performed on either a Zeiss LSM780 or a Nikon Eclipse Ti; vacuolation was monitored using a Nikon TE2000-S equipped with DIC filters. Anchorage-independent growth of SW620 cells is measured in DMEM-10 containing 0.35% agarose with a 0.5% agarose bottom layer. PBMNCs are obtained from the normal blood donor program run by the CTSA-supported Institute for Clinical and Translational Science at UCI under IRB protocols 2015-1883 (Edinger) and 2001-2058 (ICTS). […] Plates were incubated at 37° C. in a humidified atmosphere containing 5% CO2 and colonies were counted after 12 days.
Cell culture and reagents. […] Cell viability was measured by vital dye exclusion using either propidium iodide or DAPI at 1 μg/ml. Analysis of cell surface 4F2hc levels with PE-conjugated anti-CD98 was restricted to viable cells as determined by DAPI exclusion. Anchorage-independent growth of SW620 cells was measured in DMEM-10 containing 0.35% low melt agarose with a 0.5% agarose bottom layer. […]

T1 sequence (Q9Y2I7 whole entry, species assumed): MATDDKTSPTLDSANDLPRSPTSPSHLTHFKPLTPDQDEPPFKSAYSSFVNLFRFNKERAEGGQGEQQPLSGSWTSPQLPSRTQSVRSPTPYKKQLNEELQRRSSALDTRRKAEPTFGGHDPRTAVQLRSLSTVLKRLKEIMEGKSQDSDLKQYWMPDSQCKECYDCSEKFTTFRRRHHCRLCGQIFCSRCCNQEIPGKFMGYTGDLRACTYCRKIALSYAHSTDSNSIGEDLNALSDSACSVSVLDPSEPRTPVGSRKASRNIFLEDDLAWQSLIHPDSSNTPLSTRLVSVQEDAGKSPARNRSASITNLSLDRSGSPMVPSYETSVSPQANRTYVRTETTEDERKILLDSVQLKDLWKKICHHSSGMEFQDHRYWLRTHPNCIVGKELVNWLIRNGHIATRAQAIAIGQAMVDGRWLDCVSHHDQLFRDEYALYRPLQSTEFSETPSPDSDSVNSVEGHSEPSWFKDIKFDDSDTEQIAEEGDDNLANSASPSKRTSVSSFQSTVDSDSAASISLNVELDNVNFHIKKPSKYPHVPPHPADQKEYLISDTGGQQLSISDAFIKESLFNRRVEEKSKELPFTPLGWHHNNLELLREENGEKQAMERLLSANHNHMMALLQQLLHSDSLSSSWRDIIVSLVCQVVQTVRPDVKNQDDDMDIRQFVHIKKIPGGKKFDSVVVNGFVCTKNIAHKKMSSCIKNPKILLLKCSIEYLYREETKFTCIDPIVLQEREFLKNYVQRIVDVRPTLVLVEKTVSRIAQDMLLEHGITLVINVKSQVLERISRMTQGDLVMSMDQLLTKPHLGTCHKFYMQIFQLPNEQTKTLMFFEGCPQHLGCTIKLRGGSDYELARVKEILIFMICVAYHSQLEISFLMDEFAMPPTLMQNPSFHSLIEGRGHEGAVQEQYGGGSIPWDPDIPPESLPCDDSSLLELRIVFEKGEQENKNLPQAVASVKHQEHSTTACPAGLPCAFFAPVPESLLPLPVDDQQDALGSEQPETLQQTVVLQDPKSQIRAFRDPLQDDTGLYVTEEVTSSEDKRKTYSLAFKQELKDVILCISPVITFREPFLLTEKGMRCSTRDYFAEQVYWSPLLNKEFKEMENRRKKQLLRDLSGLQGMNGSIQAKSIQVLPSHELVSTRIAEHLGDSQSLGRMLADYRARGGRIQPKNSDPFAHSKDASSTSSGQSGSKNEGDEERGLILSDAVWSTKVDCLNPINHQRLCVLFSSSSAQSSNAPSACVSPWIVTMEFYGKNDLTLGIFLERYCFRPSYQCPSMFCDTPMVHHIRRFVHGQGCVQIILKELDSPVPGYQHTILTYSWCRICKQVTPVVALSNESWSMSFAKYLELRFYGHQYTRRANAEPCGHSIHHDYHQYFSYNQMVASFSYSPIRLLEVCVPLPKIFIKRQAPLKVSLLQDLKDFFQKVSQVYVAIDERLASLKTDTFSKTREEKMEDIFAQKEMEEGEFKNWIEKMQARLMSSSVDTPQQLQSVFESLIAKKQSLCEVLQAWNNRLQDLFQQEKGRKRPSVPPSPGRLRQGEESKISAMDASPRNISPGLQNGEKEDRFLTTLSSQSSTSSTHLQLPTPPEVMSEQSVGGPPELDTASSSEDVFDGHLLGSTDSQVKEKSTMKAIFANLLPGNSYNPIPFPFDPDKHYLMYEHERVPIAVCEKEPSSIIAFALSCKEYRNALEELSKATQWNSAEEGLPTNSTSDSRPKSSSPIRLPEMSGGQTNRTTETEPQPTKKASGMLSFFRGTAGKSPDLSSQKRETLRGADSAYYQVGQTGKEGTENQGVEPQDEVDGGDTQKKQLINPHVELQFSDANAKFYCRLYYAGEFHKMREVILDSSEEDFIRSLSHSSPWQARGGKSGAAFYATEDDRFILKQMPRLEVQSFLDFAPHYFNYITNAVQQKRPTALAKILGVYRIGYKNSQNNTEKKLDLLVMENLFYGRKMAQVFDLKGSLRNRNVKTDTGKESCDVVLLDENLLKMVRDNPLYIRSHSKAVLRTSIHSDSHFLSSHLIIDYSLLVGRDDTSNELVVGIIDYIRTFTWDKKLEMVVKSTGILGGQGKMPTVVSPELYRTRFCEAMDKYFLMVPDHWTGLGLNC

SMILES	PIKfyve kinase activity (PIKfyve)	sensitivity in colony formation assays (colon cancer cells SW620)
CCCCCCCCc1ccc(CCC(N)(CO)CO)cc1.Cl [FTY720, 2-Amino-2-[2-(4-octylphenyl)ethyl]propane 1,3-diol hydrochloride, reference compound]	did not inhibit PIKfyve kinase activity	
CCCCCCCCc1ccc([C@H]2CCN[C@@H]2CO)cc1.Cl [Compound 5, (2S,3R)-2-(hydroxymethyl)-3-(4-octylphenyl)Pyrrolidinium chloride]		highly sensitive
